According to patent US8735391B2, “Synthesis of functionalized octahydro-isoquinolin-1-one-8-carboxamides, octahydro-isoquinolin-1-one-8-carboxylic esters and analogs, and therapeutic methods” (University of Kansas, priority 2008, dated 2014):

Experiments:
[1] = target: T1, KOR (Homo sapiens, UniProt P41145); assay: [35S]GTPγS binding functional agonist assay on membranes of CHO cells expressing hKOR (reference agonist U69593); assay type: biochemical; parameters: expressed in transfected cells; host or cells: CHO cells, stably transfected; crude membrane fractions; conditions: test compound at 10 micromolar; N=4; reference agonist = 100%; CHO-cell line expressing hKOR
T1 sequence (P41145 whole entry): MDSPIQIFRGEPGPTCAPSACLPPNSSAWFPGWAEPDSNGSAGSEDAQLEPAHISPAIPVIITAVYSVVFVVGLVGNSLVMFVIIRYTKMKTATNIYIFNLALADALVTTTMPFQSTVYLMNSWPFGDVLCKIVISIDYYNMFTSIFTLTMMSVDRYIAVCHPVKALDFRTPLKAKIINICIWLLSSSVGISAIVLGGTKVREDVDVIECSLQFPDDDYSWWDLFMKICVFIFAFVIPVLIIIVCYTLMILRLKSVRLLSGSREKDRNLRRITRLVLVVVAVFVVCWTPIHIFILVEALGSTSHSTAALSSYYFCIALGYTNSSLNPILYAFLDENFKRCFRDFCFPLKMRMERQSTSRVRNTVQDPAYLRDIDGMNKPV
Method: The compounds prepared herein were tested for bioactivity with opioid receptors. Agonist assays: Data represent the percent efficacy (relative to cognate agonist) of the test compound at 10 micromolar. The response to a saturating concentration of a reference antagonist or to vehicle (usually none or negligible) is set to 0%. […] The response inhibition elicited by a saturating concentration of reference antagonist is set to 100%; the response inhibition (usually none or negligible) elicited by vehicle is set to 0%. The following tables provide data related to the bioactivity for opioid receptors of the compounds described herein.
Table 6 provides data that represent the average percent efficacy (N=4; relative to cognate agonist) of the test compound at 10 micromolar concentration. The response to a saturating concentration of cognate/reference agonist is set to 100%; the response to a saturating concentration of a reference antagonist or to vehicle (usually none or negligible) is set to 0%. All functional assays are performed on stably transfected CHO-cell lines expressing hKOR, hMOR or hDOR.
(§1) Serial dilutions of the test and reference compounds are made in binding buffer at 2× assay concentration (final assay concentrations ranging from 0.1 nM to 10 μM). Crude membrane fractions (1.8 to 3.5 cm2/well) (prepared from 10-cm plates by harvesting PBS-rinsed monolayers, resuspending and lysing in chilled, hypotonic 50 mM Tris-HCl, pH 7.4, centrifuging at 20,000×g, decanting the supernatant and storing at −80 degrees centigrade; typically, one 10-cm plate provides sufficient material for 24 wells) are resuspended in 1.2 ml of assay buffer containing 20 μM GDP, wheat germ agglutinin (WGA)-coated scintillation proximity beads (2.4 mg), and [35S]GTPγS (300 pM final). The suspension is then added (50 μl/well) to 50 μl of the 2× test or reference compounds (each concentration assayed in triplicate) in flexible transparent PET 96-well plates. The reaction plate is sealed and incubated for 90 min at room temperature, then centrifuged for 5 min at 216×g, and finally loaded into a Wallac MicroBeta TriLux counter. Non-specific [35S]GTPγS binding is assessed at the maximum concentration of reference agonist in the presence of 10 μM antagonist. The background signal is measured at 10 μM reference agonist in the presence of 10 μM unlabeled GTPγS. Raw data (dpm) representing total [35S]GTPγS binding (i.e., specific+non-specific binding) are calculated as a percentage of the maximum response by the reference agonist (in this case U69593).
as §1, with “GTPγS.” for “GTPγS. Raw data (dpm) representing total [35S]GTPγS binding (i.e., specific+non-specific binding) are calculated as a percentage of the maximum response by the reference agonist (in this case U69593).”

[2] = target: T1, KOR; assay: Opioid secondary binding, KOR (Tables 4, 5, 8, 9); conditions: Opioid secondary binding activity for Formula 10 analogs; read-out: KOR, Ki
[3] = target: DOR (Homo sapiens, UniProt P41143); assay: Opioid secondary binding, DOR (Table 4); conditions: Opioid secondary binding activity for Formula 10 analogs
Chain of DOR (P41143 whole entry): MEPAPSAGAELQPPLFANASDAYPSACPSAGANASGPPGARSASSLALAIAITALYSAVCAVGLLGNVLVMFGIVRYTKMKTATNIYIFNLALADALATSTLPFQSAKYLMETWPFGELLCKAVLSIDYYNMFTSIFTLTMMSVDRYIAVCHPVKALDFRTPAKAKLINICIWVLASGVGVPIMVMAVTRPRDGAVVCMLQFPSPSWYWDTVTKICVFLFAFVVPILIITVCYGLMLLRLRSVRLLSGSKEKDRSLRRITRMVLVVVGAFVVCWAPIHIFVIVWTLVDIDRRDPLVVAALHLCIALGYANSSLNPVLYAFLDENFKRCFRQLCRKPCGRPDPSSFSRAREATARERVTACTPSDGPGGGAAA

SMILES	KOR agonist (average percent efficacy relative to cognate agonist) [1]	Ki [2]	Ki [3]
COc1ccc(CNC(=O)[C@@H]2CC=C[C@@H]3CCN(Cc4ccc(OC)c(OC)c4)C(=O)[C@@H]32)cc1 (racemic) [compound 8929]	3.6%		
CCCCN1CC[C@H]2C=CC[C@@H](C(=O)N3CCN(c4ccccc4)CC3)[C@H]2C1=O (racemic) [compound 8914]	9.9%		
CCCCN1CC[C@H]2C=CC[C@@H](C(=O)NCc3ccc(OC)cc3)[C@H]2C1=O (racemic) [compound 8927]	8.7%		
Cc1ccc(NC(=O)[C@@H]2CC=C[C@@H]3CCN(Cc4ccccc4)C(=O)[C@@H]32)cc1C(F)(F)F (racemic) [compound 13475]		1160 nM	39 nM
O=C(Nc1ccc([N+](=O)[O-])c(C(F)(F)F)c1)[C@@H]1CC=C[C@@H]2CCN(Cc3ccccc3)C(=O)[C@@H]21 (racemic) [compound 11932]		200 nM	41 nM
O=C(NCc1cccnc1)[C@@H]1CC=C[C@@H]2CCN(C3CC3)C(=O)[C@@H]21 (racemic) [compound 8930]	4%		
CC(c1ccccc1)N1CCC2C=CCC(C(=O)NC3CCCCC3)C2C1=O (mixture of isomers) [compound 12163]		5910 nM	1160 nM
O=C(Nc1ccc(I)cc1)[C@@H]1CC=C[C@@H]2CCN(Cc3ccccc3)C(=O)[C@@H]21 (racemic) [compound 11954]		2820 nM	194 nM
O=C(Nc1ccc(Cl)c(C(F)(F)F)c1)[C@@H]1CC=C[C@@H]2CCN(Cc3ccc(Cl)c(Cl)c3)C(=O)[C@@H]21 (racemic) [compound 8957]	33.1%		
COc1ccc(NC(=O)[C@@H]2CC=C[C@@H]3CCN(C4CC4)C(=O)[C@@H]32)cc1 (racemic) [compound 8944]	1%		
O=C(Nc1ccc(Br)c(C(F)(F)F)c1)[C@@H]1CC=C[C@@H]2CCN(Cc3ccccc3F)C(=O)[C@@H]21 (racemic) [compound 13478]		299 nM	22 nM
O=C([C@@H]1CC=C[C@@H]2CCN(C3CC3)C(=O)[C@@H]21)N1CCOCC1 (racemic) [compound 8909]	7.8%		
O=C(Nc1ccc(Cl)cc1Cl)[C@@H]1CC=C[C@@H]2CCN(C3CC3)C(=O)[C@@H]21 (racemic) [compound 8948]	29.6%		
COc1ccc(CNC(=O)[C@@H]2CC=C[C@@H]3CCN(C4CC4)C(=O)[C@@H]32)cc1 (racemic) [compound 8925]	5.4%		
O=C(NC1CCCCC1)[C@@H]1CC=C[C@@H]2CCN(C3CC3)C(=O)[C@@H]21 (racemic) [compound 8921]	4.1%		
Cc1ccc(NC(=O)[C@@H]2CC=C[C@@H]3CCN(Cc4ccccc4)C(=O)[C@@H]32)cc1Cl (racemic) [compound 11931]		2570 nM	61 nM
CCCCN1CC[C@H]2C=CC[C@@H](C(=O)N3CCOCC3)[C@H]2C1=O (racemic) [compound 8911]	8.3%		
O=C(Nc1ccc(Cl)c(C(F)(F)F)c1)[C@@H]1CC=C[C@@H]2CCN(Cc3cccc(Br)c3)C(=O)[C@@H]21 (racemic) [compound 12170]		1460 nM	1720 nM
O=C(Nc1ccc(Br)c(C(F)(F)F)c1)[C@@H]1CC=C[C@@H]2CCN(Cc3cccc(Br)c3)C(=O)[C@@H]21 (racemic) [compound 12171]		694 nM	503 nM
CC(c1ccccc1)N1CCC2C=CCC(C(=O)Nc3ccccc3)C2C1=O (mixture of isomers) [compound 12164]		4780 nM	1380 nM
O=C(Nc1ccc(Cl)cc1)[C@@H]1CC=C[C@@H]2CCN(Cc3ccccc3)C(=O)[C@@H]21 (racemic) [compound 12102]		5030 nM	165 nM

SMILES	KOR agonist (average percent efficacy relative to cognate agonist) [1]	Ki [2]	Ki [3]
O=C(Nc1ccccc1)[C@@H]1CC=C[C@@H]2CN(C3CCCCC3)C(=O)[C@@H]21 (racemic) [compound 14435]			1610 nM
O=C(Nc1ccc(Cl)cc1)[C@@H]1CC=C[C@@H]2CCN(C3CCCCC3)C(=O)[C@@H]21 (racemic) [compound 12087]			582 nM
O=C([C@@H]1CC=C[C@@H]2CCN(C3CCCCC3)C(=O)[C@@H]21)N1CCCC1 (racemic) [compound 12084]			6290 nM
O=C(NC1CCCCC1)[C@@H]1CC=C[C@@H]2CCN(CC3CC3)C(=O)[C@@H]21 (racemic) [compound 12152]			2520 nM
O=C(Nc1ccc(Br)c(C(F)(F)F)c1)[C@@H]1CC=C[C@@H]2CCN(CC3CC3)C(=O)[C@@H]21 (racemic) [compound 12172]			1280 nM
C=CCNC(=O)[C@@H]1CC=C[C@@H]2CCN(CC3CCCCC3)C(=O)[C@@H]21 (racemic) [compound 12110]			1430 nM
O=C(NC1CCCCC1)[C@@H]1CC=C[C@@H]2CN(C3CCCCC3)C(=O)[C@@H]21 (racemic) [compound 14436]			2150 nM
O=C(NCCc1ccccc1)[C@@H]1CC=C[C@@H]2CCN(C3CC3)C(=O)[C@@H]21 (racemic) [compound 8917]	6.6%		
O=C([C@@H]1CC=C[C@@H]2CCN(c3ccccc3)C(=O)[C@@H]21)N1CCCC1 (racemic) [compound 12094]			> 10000 nM
O=C(NCC1CC1)[C@@H]1CC=C[C@@H]2CCN(c3ccccc3)C(=O)[C@@H]21 (racemic) [compound 12095]			1220 nM
O=C1[C@H]2[C@H](C=CC[C@H]2C(=O)N2CCCC2)CCN1Cc1ccccc1 (racemic) [compound 12099]			6650 nM
O=C(NCC1CC1)[C@@H]1CC=C[C@@H]2CCN(CC3CC3)C(=O)[C@@H]21 (racemic) [compound 12090]			5650 nM
O=C(NCc1cccc(Br)c1)[C@@H]1CC=C[C@@H]2CCN(Cc3ccccc3)C(=O)[C@@H]21 (racemic) [compound 11955]		3280 nM	438 nM
C=CCNC(=O)[C@@H]1CC=C[C@@H]2CCN(Cc3ccccc3)C(=O)[C@@H]21 (racemic) [compound 12122]			3430 nM
CN(C)C(=O)[C@@H]1CC=C[C@@H]2CCN(Cc3ccccc3)C(=O)[C@@H]21 (racemic) [compound 12101]			> 10000 nM
O=C(Nc1ccc([N+](=O)[O-])c(C(F)(F)F)c1)[C@@H]1CC=C[C@@H]2CCN(c3ccccc3)C(=O)[C@@H]21 (racemic) [compound 11926]			35 nM
O=C(Nc1ccc(I)cc1)[C@@H]1CC=C[C@@H]2CCN(CC3CC3)C(=O)[C@@H]21 (racemic) [compound 11942]			1280 nM
COc1ccccc1CN1CC[C@H]2C=CC[C@@H](C(=O)Nc3ccc(C)c(C(F)(F)F)c3)[C@H]2C1=O (racemic) [compound 13481]		1900 nM	1340 nM
O=C(NCc1ccc(Cl)c(Cl)c1)[C@@H]1CC=C[C@@H]2CCN(CC3CCCCC3)C(=O)[C@@H]21 (racemic) [compound 12136]			1300 nM
O=C(NCc1ccc(Cl)c(Cl)c1)[C@@H]1CC=C[C@@H]2CCN(Cc3ccccc3)C(=O)[C@@H]21 (racemic) [compound 12148]		2780 nM	644 nM
CN(C(=O)[C@@H]1CC=C[C@@H]2CCN(C3CCCCC3)C(=O)[C@@H]21)c1ccccc1 (racemic) [compound 12160]			2980 nM
